ChEMBL document CHEMBL5500403, “Discovery of a Double-Stapled Short Peptide as a Long-Acting HIV-1 Inactivator with Potential for Oral Bioavailability” (J Med Chem, 2024)
Activity calls are given as the source filed them. The rule behind the calls is not given here. Bridge positions count the residues as written; N and C are the ends. Square brackets hold non-standard residues; d marks the D form. Peptide text beside a SMILES is read from it. S5 = C=CCCC[C@](C)(N)C(=O)O

Legend:
[1] = tested on: Human immunodeficiency virus 1; assay: Antiviral activity against HIV-1 IIIB infected in human MT2 cells assessed as inhibition of viral growth at 5 uM preincubation of compound with 20% HSA; format: functional, organism-based
[2] = tested on: Human immunodeficiency virus 1; assay: Antiviral activity against HIV-1 Bal-R5 assessed as reduction in viral growth by measuring p24 antigen level incubated for 2 hrs by ELISA; format: functional, organism-based; conditions: Human immunodeficiency virus 1, Bal-R5, 2 h
[3] = tested on: Human immunodeficiency virus 1; assay: Antiviral activity against T20-resistant HIV-1 NL4-3 harboring […] V38E and N42S mutant assessed as reduction in viral growth by measuring p24 antigen level incubated for 2 hrs by ELISA; format: functional, organism-based
[4] = tested on: Human immunodeficiency virus 1; assay: Antiviral activity against T20-resistant HIV-1 NL4-3 harboring […] N42T and N43K mutant infected in human MT2 cells assessed as inhibition of viral growth pretreated with virus for 30 mins followed by infection with cells incubated for 72 hrs by ELISA; format: functional, organism-based
chymotrypsin = chymotrypsin (Homo sapiens, UniProt P17538+P40313+Q6GPI1+Q99895); assay: Proteolytic stability assessed as Chymotrypsin (unknown origin) mediated compound degradation by measuring parent compound remaining incubated for 2 hrs by LC-MS/MS analysis; format: ADME, protein assay; conditions: read-out: Stability
[5] = Toxicity in Sprague-Dawley rat assessed as change in body weight at 50 mg/kg,iv administration measured upto 14 days; format: organism-based; conditions: in vivo, 336 h, time < 14 day
[6] = Drug concentration in Sprague-Dawley rat plasma at 10 mg/kg,iv administrated upto 8 days by LC-MS/MS analysis; format: ADME, organism-based; conditions: in vivo, 192 h, time < 8 day
[7] = Toxicity in Sprague-Dawley rat assessed as change in serum ALT level at 50 mg/kg,iv administration measured upto 6 days; format: organism-based; conditions: in vivo, 144 h, time < 6 day
[8] = tested on: Human immunodeficiency virus 1; assay: Binding affinity to cytoplasmic LLP1 domain of HIV-1 GP41 assessed as binding constant by isothermal titration calorimetry
[9] = Toxicity in BALB/c mouse assessed as histopathological change in liver at 100 mg/kg,iv administration measured after 14 days by hematoxylin and eosin staining based assay; format: organism-based; conditions: in vivo, 336 h, time 14 day
[10] = tested on: Human immunodeficiency virus 1; assay: Antiviral activity against T20-resistant HIV-1 NL4-3 harboring […] N38A and N42T mutant infected in human MT2 cells assessed as inhibition of viral growth pretreated with virus for 30 mins followed by infection with cells incubated for 72 hrs by ELISA; format: functional, organism-based
[11] = tested on: Human immunodeficiency virus 1; assay: Antiviral activity against HIV-1 clinical isolate X4-89BZ167 assessed as reduction in viral growth by measuring p24 antigen level incubated for 2 hrs by ELISA; format: functional, organism-based; conditions: Human immunodeficiency virus 1, clinical isolate X4-89BZ167, 2 h
[12] = Plasma protein binding in human by LC-MS/MS analysis; format: ADME, cell-free; conditions: read-out: PPB (converted)
[13] = Elimination half life in Sprague-Dawley rat at 10 mg/kg,iv administration measured upto 9 days by LC-MS/MS analysis; format: ADME, organism-based; conditions: in vivo, time < 9 day, read-out: beta t1/2
[14] = Toxicity in female BALB/c mouse assessed as change in body weight at 100 mg/kg,iv administration measured upto 14 days; format: organism-based; conditions: in vivo, 336 h, time < 14 day
[15] = Toxicity in Sprague-Dawley rat assessed as cell degeneration in kidney at 50 mg/kg,iv administration measured after 14 days by hematoxylin and eosin staining based assay; format: organism-based; conditions: in vivo, 336 h, time 14 day
[16] = tested on: Human immunodeficiency virus 1; assay: Binding affinity to cytoplasmic LLP1 domain of HIV-1 GP41 assessed as change in enthalpy by isothermal titration calorimetry
[17] = tested on: Human immunodeficiency virus 1; assay: Antiviral activity against T20-resistant HIV-1 NL4-3 harboring […] V38E and N42S mutant infected in human MT2 cells assessed as inhibition of viral growth pretreated with virus for 30 mins followed by infection with cells incubated for 72 hrs by ELISA; format: functional, organism-based
[18] = Volume of distribution at steady state in Sprague-Dawley rat at 1 mg/kg,iv administration measured upto 9 days by LC-MS/MS analysis; format: ADME, organism-based; conditions: in vivo, time < 9 day, read-out: Vdss
[19] = Toxicity in Sprague-Dawley rat assessed as cell degeneration in liver at 50 mg/kg,iv administration measured after 14 days by hematoxylin and eosin staining based assay; format: organism-based; conditions: in vivo, 336 h, time 14 day
[20] = tested on: Human immunodeficiency virus 1; assay: Antiviral activity against T20-resistant HIV-1 NL4-3 harboring […] N42T and N43K mutant assessed as reduction in viral growth by measuring p24 antigen level incubated for 2 hrs by ELISA; format: functional, organism-based
[21] = tested on: Human immunodeficiency virus 1; assay: Antiviral activity against HIV-1 IIIB infected in human MT2 cells assessed as inhibition of viral growth pretreated with virus for 30 mins followed by infection with cells incubated for 72 hrs by ELISA; format: functional, organism-based; conditions: Human immunodeficiency virus 1, IIIB
[22] = tested on: Human immunodeficiency virus 1; assay: Binding affinity to cytoplasmic LLP1 domain of HIV-1 GP41 by ELISA
[23] = tested on: Human immunodeficiency virus 1; assay: Antiviral activity against HIV-1 IIIB infected in human MT2 cells assessed as inhibition of viral growth at 5 uM preincubation of compound with 10% HSA; format: functional, organism-based
[24] = AUClast in Sprague-Dawley rat at 10 mg/kg,iv administration measured upto 9 days by LC-MS/MS analysis; format: ADME, organism-based; conditions: in vivo, time < 9 day
[25] = Toxicity in Sprague-Dawley rat assessed as histopathological change in kidney at 50 mg/kg,iv administration measured after 14 days by hematoxylin and eosin staining based assay; format: organism-based; conditions: in vivo, 336 h, time 14 day
[26] = Toxicity in BALB/c mouse assessed as change in serum ALT level at 20 mg/kg,iv administration measured upto 6 days; format: organism-based; conditions: in vivo, 144 h, time < 6 day
[27] = Selectivity index, ratio of CC50 for cytotoxicity against human MT2 cells to IC50 for antiviral activity against HIV-1 IIIB infected in human MT2 cells; format: toxicity, cell-based; conditions: read-out: Ratio CC50/IC50
[28] = Stability in Sprague-Dawley rat liver microsomes in presence of NADPH by LC-MS/MS analysis; format: ADME, Microsome
[29] = MRT in Sprague-Dawley rat at 1 mg/kg,iv administration measured upto 9 days by LC-MS/MS analysis; format: ADME, organism-based; conditions: in vivo, time < 9 day
[30] = tested on: Human immunodeficiency virus 1; assay: Binding affinity to cytoplasmic LLP1 domain of HIV-1 GP41 assessed as change in entropy by isothermal titration calorimetry
[31] = tested on: Human immunodeficiency virus 1; assay: Antiviral activity against T20-resistant HIV-1 NL4-3 harboring […] N38A and N42T mutant assessed as reduction in viral growth by measuring p24 antigen level incubated for 2 hrs by ELISA; format: functional, organism-based
[32] = AUClast in Sprague-Dawley rat at 1 mg/kg,iv administration measured upto 9 days by LC-MS/MS analysis; format: ADME, organism-based; conditions: in vivo, time < 9 day
[33] = Stability in rat liver assessed as parent compound remaining at 1 ug/ml incubated for 1 hr by LC-MS/MS analysis; format: ADME, tissue-based; conditions: at 1 µg/mL, read-out: Stability
[34] = Apparent permeability in human Caco-2 cells at 5 uM; format: ADME, cell-based
[35] = Toxicity in BALB/c mouse assessed as histopathological change in kidney at 100 mg/kg,iv administration measured after 14 days by hematoxylin and eosin staining based assay; format: organism-based; conditions: in vivo, 336 h, time 14 day
ACH-2 cell line = assay: Cytotoxicity against chidamide non-reactivated human ACH-2 cell line infected with latent HIV-1 assessed as reduction in cell viability at 1.25 to 5 uM; format: functional, cell-based; conditions: dose 1.25-5 µM

## CC(=O)NCC(=O)N[C@@]1(C)CCC/C=C\CCC[C@@](C)(C(=O)N[C@@H](Cc2ccc(O)cc2)C(=O)N[C@@H](CC(C)C)C(=O)N[C@@]2(C)CCC/C=C\CCC[C@@](C)(C(=O)N[C@@H](Cc3ccc(O)cc3)C(=O)N[C@@H](Cc3c[nH]c4ccccc34)C(N)=O)NC(=O)[C@H](CC(C)C)NC(=O)[C@H](CC(C)C)NC(=O)[C@H](CC(N)=O)NC2=O)NC(=O)[C@H](CC(C)C)NC(=O)[C@H](C)NC(=O)[C@H](CCC(=O)O)NC1=O (Ac-G[S5]EAL[S5]YL[S5]NLL[S5]YW-NH2; staple (Z) 2-6, 9-13)
[1]
  Activity: Active
[2]
  EC50: 36700 nM
[3]
  EC50: 50.6 nM
[4]
  IC50: 124 nM
chymotrypsin
  remaining at 2 h: > 56.8%
[5]
  Activity: Non-Toxic
[6]
  Drug uptake: Active
[7]
  Activity: Non-Toxic
[8]
  K: 2.77 10^5/M
[9]
  Activity: Non-Toxic
[10]
  IC50: 12.2 nM
[11]
  EC50: 44.4 nM
[12]
  fraction unbound: 0.182
[13]
  half-life: > 70 h
[14]
  Activity: Non-Toxic
[15]
  Activity: Non-Toxic
[16]
  deltaH: -2.84 10^4cal/mol
[17]
  IC50: 32.6 nM
[18]
  Vd: 2.32 L/kg
[19]
  Activity: Non-Toxic
[20]
  EC50: 114 nM
[21]
  IC50: 23.5 nM
[22]
  Activity: Dose-Dependent Effect
[23]
  Activity: Active
[24]
  AUC(0-t) at 216 h: 334 µg·h/mL
[25]
  Activity: Non-Toxic
[26]
  Activity: Non-Toxic
[27]
  selectivity ratio: 216
[28]
  Stability: Stable
[29]
  MRT: 71.1 h
[30]
  deltaS: -70.2 cal/mol/deg
[31]
  EC50: 23.1 nM
[32]
  AUC(0-t) at 216 h: 40.4 µg·h/mL
[33]
  remaining at 1 h, 1 ug/ml: 100%
[34]
  Papp at 5 µM: < 0.02 ×10⁻⁶ cm/s
[35]
  Activity: Non-Toxic
ACH-2 cell line
  Activity: inactive
